The text below walks through data of PubChem BioAssay (NCI).

Test systems include MDA-MB-435; TK-10 renal; LOX IMVI melanoma; PC-3 prostate; NCI-H522 lung; OVCAR-3 ovarian; HL-60(TB) leukemia; HOP-62 NSCLC; SF-268 CNS; OVCAR-8 ovarian; HS 578T breast; ACHN renal; SF-539 CNS; UACC-62 melanoma; SNB-19 CNS; M14 melanoma; HOP-92 NSCLC; EKVX NSCLC.
What all share (test): NCI-60 cell line screen, 48 h

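All cell lines were grown in 96-well plates and treated with compound for 48 hours. At the TGI there is no net growth.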

In the case of `CC(=O)OCC1OC(n2c3c(c(-c4ccc(C)cc4)c(C#N)c2=S)C(=O)CC(C)(C)C3)C(OC(C)=O)C(OC(C)=O)C1OC(C)=O` (centres undefined), the TGI in the test on MDA-MB-435 is greater than 100 µM; in the test on TK-10 renal it was greater than 100 µM; in the test on LOX IMVI melanoma it was 26.2 µM; in the test with PC-3 prostate, 60 µM; in the test on NCI-H522 lung, greater than 100 µM; with OVCAR-3 ovarian, greater than 100 µM. The TGI was greater than 100 µM in the test on HL-60(TB) leukemia; greater than 100 µM with HOP-62 NSCLC; 94.9 µM with SF-268 CNS; greater than 100 µM in the test on OVCAR-8 ovarian; greater than 100 µM in the test on HS 578T breast; greater than 100 µM with ACHN renal. Besides, the TGI in the test on SF-539 CNS was 67.2 µM; in the test on UACC-62 melanoma, 44.4 µM; with SNB-19 CNS, greater than 100 µM; with M14 melanoma, greater than 100 µM; in the test on HOP-92 NSCLC, greater than 100 µM.
Take `C/C=C1/CC(C(=O)OC)N(C(=O)OCc2ccccc2)C1=S` (centres undefined): the TGI in the test on MDA-MB-435, with TK-10 renal, in the test on PC-3 prostate, with NCI-H522 lung, in the test on OVCAR-3 ovarian and in the test with HOP-62 NSCLC was greater than 100 µM throughout. Moreover, the TGI in the test with SF-268 CNS, in the test on OVCAR-8 ovarian, in the test with HS 578T breast, in the test with ACHN renal, in the test with EKVX NSCLC and in the test on UACC-62 melanoma was greater than 100 µM throughout. The TGI in the test on SNB-19 CNS, with M14 melanoma and in the test on HOP-92 NSCLC was greater than 100 µM each time.
On to `O=C(O)c1cc(CCc2ccc(O)c(O)c2)ccc1O`, for which the TGI in the test on MDA-MB-435 is greater than 100 µM; in the test with PC-3 prostate, greater than 100 µM; in the test with NCI-H522 lung, greater than 100 µM; with OVCAR-3 ovarian it was greater than 100 µM; with HL-60(TB) leukemia, 59.2 µM; in the test on HOP-62 NSCLC it was greater than 100 µM. Besides, the TGI with SF-268 CNS, with OVCAR-8 ovarian, with HS 578T breast, with ACHN renal, with SF-539 CNS and with UACC-62 melanoma was greater than 100 µM throughout. The TGI in the test on SNB-19 CNS and with M14 melanoma was greater than 100 µM each time.
For the compound `O=C(O)C(Cc1cc(I)c(O)c(I)c1)C1CCCCC1` (centres undefined), the TGI was greater than 100 µM with MDA-MB-435; 88.7 µM in the test with TK-10 renal; greater than 100 µM in the test with LOX IMVI melanoma; 41.5 µM with PC-3 prostate; greater than 100 µM in the test with NCI-H522 lung; 38.5 µM with OVCAR-3 ovarian. Besides, the TGI in the test on HOP-62 NSCLC, in the test with SF-268 CNS, in the test on OVCAR-8 ovarian, in the test on HS 578T breast, in the test with ACHN renal and with EKVX NSCLC was greater than 100 µM in each case. Moreover, the TGI in the test on UACC-62 melanoma, in the test with SNB-19 CNS, in the test with M14 melanoma and in the test on HOP-92 NSCLC was greater than 100 µM each time.
On to `Cc1ccc(S(=O)(=O)n2cc(/C=C/C#N)c(-c3cn(S(=O)(=O)c4ccc(C)cc4)cc3-c3cn(S(=O)(=O)c4ccc(C)cc4)cc3/C=C/C#N)c2)cc1`, for which the TGI with MDA-MB-435, in the test on TK-10 renal, in the test on LOX IMVI melanoma, in the test on PC-3 prostate, in the test on NCI-H522 lung and in the test with OVCAR-3 ovarian was greater than 100 µM throughout. For the same compound, the TGI in the test on HOP-62 NSCLC, with SF-268 CNS, in the test on OVCAR-8 ovarian, in the test on HS 578T breast, in the test on ACHN renal and in the test on EKVX NSCLC was greater than 100 µM throughout. Besides, the TGI in the test on UACC-62 melanoma, in the test with SNB-19 CNS, in the test with M14 melanoma and with HOP-92 NSCLC was greater than 100 µM each time.
Consider `C/C(=N/NC(=O)c1ccncc1)C(F)(F)F`, for which the TGI in the test with MDA-MB-435, in the test with TK-10 renal, in the test on PC-3 prostate, in the test with NCI-H522 lung, in the test on OVCAR-3 ovarian and in the test with HL-60(TB) leukemia was greater than 100 µM throughout. The TGI with HOP-62 NSCLC, with OVCAR-8 ovarian, in the test with HS 578T breast, with UACC-62 melanoma, with SNB-19 CNS and in the test on M14 melanoma was greater than 100 µM in each case. The TGI with HOP-92 NSCLC was greater than 100 µM.
With `COCN1C(=O)[C@@H]2CCCN2C(=O)c2cc(OC)c(Cc3ccccc3)cc21`, the TGI with MDA-MB-435, in the test on TK-10 renal, in the test with LOX IMVI melanoma, in the test on PC-3 prostate, in the test on NCI-H522 lung and with HOP-62 NSCLC was greater than 100 µM in each case. Further, the TGI in the test with SF-268 CNS, in the test with OVCAR-8 ovarian, with HS 578T breast, with ACHN renal, in the test on SF-539 CNS and with EKVX NSCLC was greater than 100 µM in each case. Further, the TGI with UACC-62 melanoma, with SNB-19 CNS and in the test on M14 melanoma was greater than 100 µM each time.
As to `C=CCOC(=O)Cn1cnc2c(N)ncnc21`, the TGI in the test with MDA-MB-435, with TK-10 renal, in the test with LOX IMVI melanoma, in the test with PC-3 prostate, in the test with HL-60(TB) leukemia and in the test with HOP-62 NSCLC was greater than 100 µM throughout. The TGI with SF-268 CNS, with OVCAR-8 ovarian, in the test with HS 578T breast, with ACHN renal, in the test on SF-539 CNS and with EKVX NSCLC was greater than 100 µM in each case. The TGI in the test with UACC-62 melanoma, in the test with SNB-19 CNS and with M14 melanoma was greater than 100 µM in each case.
`CCOC(=O)c1nc2ccccc2nc1Oc1cc(OC)cc(OC)c1`: the TGI with MDA-MB-435, in the test with TK-10 renal, in the test with LOX IMVI melanoma, in the test with PC-3 prostate, with NCI-H522 lung and in the test on OVCAR-3 ovarian was greater than 100 µM throughout. Moreover, the TGI in the test with HOP-62 NSCLC, with SF-268 CNS, in the test with OVCAR-8 ovarian, in the test on HS 578T breast, in the test with ACHN renal and with SF-539 CNS was greater than 100 µM throughout. Besides, the TGI in the test on EKVX NSCLC, in the test with UACC-62 melanoma, in the test with SNB-19 CNS, in the test with M14 melanoma and in the test on HOP-92 NSCLC was greater than 100 µM each time.
`N#CC(C#N)=c1c(=O)c2c3ccccc3cc3cccc1c32`: the TGI in the test with MDA-MB-435, in the test with LOX IMVI melanoma, with PC-3 prostate, in the test with OVCAR-3 ovarian, in the test with HL-60(TB) leukemia and with HOP-62 NSCLC was greater than 100 µM throughout. Besides, the TGI is greater than 100 µM in the test with SF-268 CNS; 85 µM in the test with HS 578T breast; greater than 100 µM in the test with ACHN renal; greater than 100 µM with UACC-62 melanoma; greater than 100 µM with SNB-19 CNS; greater than 100 µM in the test with M14 melanoma. Moreover, the TGI in the test with HOP-92 NSCLC was greater than 100 µM.
With `CSC(=S)CC(O)[C@@H]1CC2c3ccccc3C1c1ccccc12` (some centres undefined), the TGI was 26 µM in the test with MDA-MB-435; 30.7 µM in the test on TK-10 renal; 54.6 µM in the test with LOX IMVI melanoma; 48.6 µM in the test with PC-3 prostate; 10.9 µM in the test on NCI-H522 lung; 22.2 µM in the test with OVCAR-3 ovarian. Besides, the TGI in the test with HL-60(TB) leukemia amounted to 7.96 µM; in the test with HOP-62 NSCLC it was 38.2 µM; in the test with SF-268 CNS, 45.4 µM; in the test with OVCAR-8 ovarian, 39.2 µM; in the test with HS 578T breast, 80.2 µM; in the test on ACHN renal it was 29.5 µM. For the same compound, the TGI worked out at 37.8 µM in the test with SF-539 CNS; 25.4 µM in the test with UACC-62 melanoma; 26.7 µM in the test with SNB-19 CNS; 27 µM in the test with M14 melanoma; 38.8 µM with HOP-92 NSCLC.
Turning to `O=C(CCC(=O)c1ccsc1)c1ccsc1`, the TGI in the test with MDA-MB-435, in the test on TK-10 renal, with LOX IMVI melanoma, in the test on PC-3 prostate, in the test on NCI-H522 lung and in the test on OVCAR-3 ovarian was greater than 100 µM each time. Besides, the TGI with HL-60(TB) leukemia, with HOP-62 NSCLC, in the test with SF-268 CNS, with OVCAR-8 ovarian, in the test on HS 578T breast and in the test on ACHN renal was greater than 100 µM each time. The TGI with SF-539 CNS, in the test with UACC-62 melanoma, with SNB-19 CNS, in the test on M14 melanoma and in the test with HOP-92 NSCLC was greater than 100 µM each time.
For the compound `CC1(C)CNC(=O)C2(CCCO2)CNC(C)(C)CNC(=O)C2(CCCO2)CN1` (centres undefined), the TGI with MDA-MB-435, with TK-10 renal, with LOX IMVI melanoma, with PC-3 prostate, with NCI-H522 lung and in the test with OVCAR-3 ovarian was greater than 10 µM throughout. Further, the TGI in the test with HL-60(TB) leukemia, with HOP-62 NSCLC, in the test on SF-268 CNS, in the test on OVCAR-8 ovarian, in the test with HS 578T breast and in the test with ACHN renal was greater than 10 µM in each case. The TGI with SF-539 CNS, in the test with UACC-62 melanoma, in the test with SNB-19 CNS, with M14 melanoma and with HOP-92 NSCLC was greater than 10 µM each time.
As to `COc1cc2nc(-c3cccs3)nc(Nc3cccc([N+](=O)[O-])c3)c2cc1OC`, the TGI with MDA-MB-435 was 31.6 µM; in the test on TK-10 renal it was 37 µM; in the test on LOX IMVI melanoma it was 45.7 µM; in the test on PC-3 prostate it was 37.8 µM; with NCI-H522 lung it was 38.1 µM; in the test with OVCAR-3 ovarian, 36.6 µM. Also, the TGI in the test with HL-60(TB) leukemia was greater than 100 µM; with HOP-62 NSCLC, 36.1 µM; in the test with SF-268 CNS, 43.6 µM; in the test on OVCAR-8 ovarian it was 56.8 µM; with HS 578T breast, 70.5 µM; in the test on ACHN renal, 38.3 µM. The TGI in the test with SF-539 CNS was determined as 34 µM; with EKVX NSCLC it was 33.1 µM; in the test with UACC-62 melanoma, 31.1 µM; with SNB-19 CNS it was 33.6 µM; in the test on M14 melanoma it was 33.5 µM.
